From patent US20210255193A1, “LYSINE REACTIVE PROBES AND USES THEREOF” (The Scripps Research Institute, priority 2017, published 2021) come the findings set out here.

Entries after “also recorded” stand apart in the source; their conditions may differ.

What all share (assay): competitive isoTOP-ABPP
Assay type in all cases: binding

In one assay the target is T1, OLA1 Obg-like ATPase 1 (Homo sapiens, UniProt Q9NTK5).
T1 construct: endogenous in cells; host or cells: MDA-MB-231 (soluble fraction of lysate)
As to conditions: for R value (DMSO/fragment) for probe 1 labeling: Q9NTK5_K248; for R value (DMSO/fragment) for probe 1 labeling / isoTOP-ABPP reactivity ratio at lysine Q9NTK5_K248 / isoTOP-ABPP ratio (R) at liganded lysine Q9NTK5_K248: 50 uM, in vitro; for R value (DMSO/fragment) for probe 1 labeling / isoTOP-ABPP reactivity ratio at lysine Q9NTK5_K248: 231 sol; for isoTOP-ABPP ratio (R) at liganded lysine Q9NTK5_K248: sol, 231. Summed up: (§1)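 Competition format: fragment (50 μM activated ester, 100 μM guanidinylating agent) versus vehicle in lysate, then lysine probe STP-alkyne at 0.1 mM for 1 h. Quantitation by light/heavy TEV-tag MS1 peak areas, reported as R.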

Assay [1] addresses T2, RQCD1 Cell differentiation protein RCD1 homolog (Homo sapiens, UniProt Q92600).
T2 construct: isoTOP-ABPP experiments performed in cell lysates (in vitro); endogenous in cells; host or cells: soluble proteome of human cancer cell lines (MDA-MB-231; Ramos and Jurkat also prepared)
To be noted: for R value (DMSO/fragment) for probe 1 labeling: Q92600_K230; for R value (DMSO/fragment) for probe 1 labeling / isoTOP-ABPP reactivity ratio at lysine Q92600_K230 / isoTOP-ABPP ratio (R) at liganded lysine Q92600_K230: 50 uM, in vitro; for R value (DMSO/fragment) for probe 1 labeling / isoTOP-ABPP reactivity ratio at lysine Q92600_K230: 231 sol; for isoTOP-ABPP ratio (R) at liganded lysine Q92600_K230: sol, 231. Summed up:
as §1

For assay [2], the target named is T3, SIN3A Paired amphipathic helix protein Sin3a (Homo sapiens, UniProt Q96ST3).
T3 construct: isoTOP-ABPP experiments performed in cell lysates (in vitro); endogenous in cells; host or cells: soluble proteome of human cancer cell lines (MDA-MB-231; Ramos and Jurkat also prepared)
T3 sequence (Q96ST3 1-1273): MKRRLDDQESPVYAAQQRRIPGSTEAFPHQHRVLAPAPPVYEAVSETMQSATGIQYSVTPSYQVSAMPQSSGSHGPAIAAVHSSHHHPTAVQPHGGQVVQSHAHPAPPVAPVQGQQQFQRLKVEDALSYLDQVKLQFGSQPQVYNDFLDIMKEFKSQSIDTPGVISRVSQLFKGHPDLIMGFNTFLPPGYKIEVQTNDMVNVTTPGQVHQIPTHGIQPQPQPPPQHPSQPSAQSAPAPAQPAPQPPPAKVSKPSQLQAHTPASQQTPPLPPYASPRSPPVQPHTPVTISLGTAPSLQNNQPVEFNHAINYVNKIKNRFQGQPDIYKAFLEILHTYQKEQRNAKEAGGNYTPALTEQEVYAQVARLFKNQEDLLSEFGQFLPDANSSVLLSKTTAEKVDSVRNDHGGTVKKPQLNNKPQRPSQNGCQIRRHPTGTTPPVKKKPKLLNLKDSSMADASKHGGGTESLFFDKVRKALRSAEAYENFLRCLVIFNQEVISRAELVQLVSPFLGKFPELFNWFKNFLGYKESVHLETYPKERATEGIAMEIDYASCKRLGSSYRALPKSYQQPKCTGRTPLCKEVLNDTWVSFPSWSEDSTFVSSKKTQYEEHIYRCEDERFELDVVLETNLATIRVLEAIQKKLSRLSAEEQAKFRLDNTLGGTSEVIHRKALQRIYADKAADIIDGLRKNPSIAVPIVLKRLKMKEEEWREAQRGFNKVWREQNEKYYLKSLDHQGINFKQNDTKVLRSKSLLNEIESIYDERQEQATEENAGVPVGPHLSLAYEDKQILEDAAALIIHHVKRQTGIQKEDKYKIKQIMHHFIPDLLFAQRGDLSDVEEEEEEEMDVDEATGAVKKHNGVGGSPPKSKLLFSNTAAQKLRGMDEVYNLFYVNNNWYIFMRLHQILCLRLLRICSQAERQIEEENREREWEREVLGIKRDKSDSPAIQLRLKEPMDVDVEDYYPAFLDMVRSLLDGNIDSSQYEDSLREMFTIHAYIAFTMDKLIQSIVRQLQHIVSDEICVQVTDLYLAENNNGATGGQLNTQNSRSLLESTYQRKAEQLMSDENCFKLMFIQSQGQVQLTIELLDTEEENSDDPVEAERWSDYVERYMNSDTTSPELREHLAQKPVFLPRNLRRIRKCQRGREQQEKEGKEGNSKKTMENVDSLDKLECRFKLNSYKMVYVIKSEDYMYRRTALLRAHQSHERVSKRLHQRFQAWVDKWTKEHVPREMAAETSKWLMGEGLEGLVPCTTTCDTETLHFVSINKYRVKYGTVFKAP
As to conditions: for R value (DMSO/fragment) for probe 1 labeling: Q96ST3_K155; for R value (DMSO/fragment) for probe 1 labeling / isoTOP-ABPP reactivity ratio at lysine Q96ST3_K155 / isoTOP-ABPP ratio (R) at liganded lysine Q96ST3_K155: 50 uM, in vitro; for R value (DMSO/fragment) for probe 1 labeling / isoTOP-ABPP reactivity ratio at lysine Q96ST3_K155: 231 sol; for isoTOP-ABPP ratio (R) at liganded lysine Q96ST3_K155: sol, 231. The essentials: as §1

T2 sequence (Q92600 whole entry): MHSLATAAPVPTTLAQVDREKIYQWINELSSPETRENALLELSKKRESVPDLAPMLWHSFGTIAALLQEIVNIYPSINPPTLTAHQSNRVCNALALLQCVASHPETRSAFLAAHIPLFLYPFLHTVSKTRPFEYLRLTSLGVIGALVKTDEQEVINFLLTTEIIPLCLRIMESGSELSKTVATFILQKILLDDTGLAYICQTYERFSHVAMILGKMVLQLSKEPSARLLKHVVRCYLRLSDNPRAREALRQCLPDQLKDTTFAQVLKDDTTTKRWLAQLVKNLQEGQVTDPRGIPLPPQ

Take `O=C(CCc1cn(-c2ccccc2)nc1-c1ccccc1)Oc1c(F)c(F)c(F)c(F)c1F` [fragment 19, Pentafluorophenyl 3-(1,3-diphenyl-1H-pyrazol-4-yl)propanoate]: the “R value (DMSO/fragment) for probe 1 labeling” value (from here on “R value (DMSO/fragment)”) on OLA1 Obg-like ATPase 1 turned out to be 1.0; in assay [1], 1.0; in assay [2] it was 1.6.
`O=C(Oc1c(F)c(F)c(F)c(F)c1F)C(c1ccccc1)c1ccccc1` [fragment 20, Pentafluorophenyl 2,2-diphenylacetate]: the “R value (DMSO/fragment)” value at OLA1 Obg-like ATPase 1 stood at 0.9; in assay [1], 0.9; in assay [2], 1.2.
Turning to `O=C(Oc1c(F)c(F)c(F)c(F)c1F)c1cc(C(F)(F)F)cc(C(F)(F)F)c1` [fragment 21, Pentafluorophenyl 3,5-bis(trifluoromethyl)benzoate], the “R value (DMSO/fragment)” value on OLA1 Obg-like ATPase 1 is 1.0; in assay [1], 0.9; in assay [2], 20.0. In addition, in assay [2] (SIN3A K155, 21 50 μM), the “engagement of K155, competition of probe 1 labeling” value is reported as “engages K155 in SIN3A; also recorded: fully competes probe 1 labeling of K155”.
Consider `Cn1cc(CC(=O)Oc2c(F)c(F)c(F)c(F)c2F)c2ccccc21` [fragment 22, Pentafluorophenyl 2-(1-methyl-1H-indol-3-yl)acetate], for which the “R value (DMSO/fragment)” value at OLA1 Obg-like ATPase 1 is reported as 1.0; in assay [1] it was 1.0; in assay [2], 3.9.
`COc1cc(CCC(=O)Oc2c(F)c(F)c(F)c(F)c2F)cc(OC)c1OC` [fragment 23, Pentafluorophenyl 3-(3,4,5-trimethoxyphenyl)propanoate]: the “R value (DMSO/fragment)” value on OLA1 Obg-like ATPase 1 is on record as 1.0; in assay [1], 1.1; in assay [2] it was 4.1.
As to `O=C(Oc1c(F)c(F)c(F)c(F)c1F)C1CCN(C(=O)OCc2ccccc2)CC1` [fragment 24, 1-Benzyl 4-(pentafluorophenyl) piperidine-1,4-dicarboxylate], the “isoTOP-ABPP reactivity ratio at lysine Q9NTK5_K248” value on OLA1 Obg-like ATPase 1 is 1.1. The “isoTOP-ABPP reactivity ratio at lysine Q96ST3_K155” value in assay [2] is 1.1.
`O=C(Oc1c(F)c(F)c(F)c(F)c1F)c1ccc2ccccc2n1` [fragment 25, Pentafluorophenyl quinoline-2-carboxylate]: on OLA1 Obg-like ATPase 1, the “isoTOP-ABPP reactivity ratio at lysine Q9NTK5_K248” value is given as 1.0. For the same compound, the “isoTOP-ABPP reactivity ratio at lysine Q96ST3_K155” value in assay [2] was found to be 11.1.
For the compound `O=C(CCc1coc2cc(F)ccc2c1=O)Oc1c(F)c(F)c(F)c(F)c1F` [fragment 26, Pentafluorophenyl 3-(7-fluoro-4-oxo-4H-chromen-3-yl)propanoate], on OLA1 Obg-like ATPase 1, the “isoTOP-ABPP reactivity ratio at lysine Q9NTK5_K248” value was 1.0. In addition, in assay [1], the “isoTOP-ABPP reactivity ratio at lysine Q92600_K230” value was 1.2. Further, in assay [2], the “isoTOP-ABPP reactivity ratio at lysine Q96ST3_K155” value worked out at 1.7.
With `O=C(CN1C(=O)c2ccccc2C1=O)Oc1c(F)c(F)c(F)c(F)c1F` [fragment 27, Pentafluorophenyl 2-(1,3-dioxoisoindolin-2-yl)acetate], the “isoTOP-ABPP reactivity ratio at lysine Q9NTK5_K248” value at OLA1 Obg-like ATPase 1 is 1.1. Also, in assay [2], the “isoTOP-ABPP reactivity ratio at lysine Q96ST3_K155” value was determined as 11.7.
The like results for `CCn1cc(C(=O)Oc2c(F)c(F)c(F)c(F)c2F)c(=O)c2ccc(C)nc21` [fragment 28, Pentafluorophenyl 1-ethyl-7-methyl-4-oxo-1,4-dihydro-1,8-naphthyridine-3-carboxylate] were, in that order, 1.0 and 4.9.
As to `O=C(CCc1cn(-c2ccccc2)nc1-c1ccccc1)Oc1ccc([N+](=O)[O-])cc1[N+](=O)[O-]` [fragment 29, 2,4-Dinitrophenyl 3-(1,3-diphenyl-1H-pyrazol-4-yl)propanoate], the “isoTOP-ABPP reactivity ratio at lysine Q9NTK5_K248” value on OLA1 Obg-like ATPase 1 is recorded as 0.9. Further, the “isoTOP-ABPP reactivity ratio at lysine Q92600_K230” value in assay [1] is on record as 1.0. In addition, in assay [2], the “isoTOP-ABPP reactivity ratio at lysine Q96ST3_K155” value is recorded as 1.5.
The like results for `O=C(Oc1ccc([N+](=O)[O-])cc1[N+](=O)[O-])C(c1ccccc1)c1ccccc1` [fragment 30, 2,4-Dinitrophenyl 2,2-diphenylacetate] were, in that order, 1.0, 1.6 and 20.0.
Consider `O=C(Oc1ccc([N+](=O)[O-])cc1[N+](=O)[O-])c1cc(C(F)(F)F)cc(C(F)(F)F)c1` [fragment 31, 2,4-Dinitrophenyl 3,5-bis(trifluoromethyl)benzoate], for which, at OLA1 Obg-like ATPase 1, the “isoTOP-ABPP reactivity ratio at lysine Q9NTK5_K248” value came to 1.0. For the same compound, in assay [1], the “isoTOP-ABPP reactivity ratio at lysine Q92600_K230” value is recorded as 1.0. Further, the “isoTOP-ABPP reactivity ratio at lysine Q96ST3_K155” value in assay [2] worked out at 18.6.
For `Cn1cc(CC(=O)Oc2ccc([N+](=O)[O-])cc2[N+](=O)[O-])c2ccccc21` [fragment 32, 2,4-Dinitrophenyl 2-(1-methyl-1H-indol-3-yl)acetate], the “isoTOP-ABPP reactivity ratio at lysine Q9NTK5_K248” value at OLA1 Obg-like ATPase 1 is on record as 1.0. Moreover, in assay [1], the “isoTOP-ABPP reactivity ratio at lysine Q92600_K230” value worked out at 10.2. In assay [2], the “isoTOP-ABPP reactivity ratio at lysine Q96ST3_K155” value is listed as 17.5.
The like results for `COc1cc(CCC(=O)Oc2ccc([N+](=O)[O-])cc2[N+](=O)[O-])cc(OC)c1OC` [fragment 33, 2,4-Dinitrophenyl 3-(3,4,5-trimethoxyphenyl)propanoate] were, in that order, 1.0, 2.5 and 2.0.
Turning to `O=C(Oc1ccc([N+](=O)[O-])cc1[N+](=O)[O-])C1CCN(C(=O)OCc2ccccc2)CC1` [fragment 34, 1-Benzyl 4-(2,4-dinitrophenyl) piperidine-1,4-dicarboxylate], the “isoTOP-ABPP ratio (R) at liganded lysine Q9NTK5_K248” value on OLA1 Obg-like ATPase 1 came to 0.9. Moreover, the “isoTOP-ABPP ratio (R) at liganded lysine Q92600_K230” value in assay [1] came to 0.8. Besides, in assay [2], the “isoTOP-ABPP ratio (R) at liganded lysine Q96ST3_K155” value turned out to be 0.8.
Regarding `O=C(Oc1ccc([N+](=O)[O-])cc1[N+](=O)[O-])c1ccc2ccccc2n1` [fragment 35, 2,4-Dinitrophenyl quinoline-2-carboxylate], the “isoTOP-ABPP ratio (R) at liganded lysine Q9NTK5_K248” value on OLA1 Obg-like ATPase 1 is reported as 1.0. For the same compound, the “isoTOP-ABPP ratio (R) at liganded lysine Q92600_K230” value in assay [1] was 0.9. Also, the “isoTOP-ABPP ratio (R) at liganded lysine Q96ST3_K155” value in assay [2] was 1.6.
Taken in the same sequence, the figures for `O=C(CCc1coc2cc(F)ccc2c1=O)Oc1ccc([N+](=O)[O-])cc1[N+](=O)[O-]` [fragment 36, 2,4-Dinitrophenyl 3-(7-fluoro-4-oxo-4H-chromen-3-yl)propanoate] were 0.8, 2.5 and 1.4.
Taken in the same sequence, the figures for `O=C(Oc1ccc([N+](=O)[O-])cc1[N+](=O)[O-])c1ccc(-c2ccccc2)cc1` [fragment 37, 2,4-Dinitrophenyl [1,1′-biphenyl]-4-carboxylate] were 0.9, 0.8 and 1.1.
Consider `O=C(Oc1c(F)c(F)cc(F)c1F)c1cc(C(F)(F)F)cc(C(F)(F)F)c1` [fragment 48, 2,3,5,6-Tetrafluorophenyl 3,5-bis(trifluoromethyl)benzoate], for which, on OLA1 Obg-like ATPase 1 (50 uM_231_sol_in vitro), the “isoTOP-ABPP ratio, lysine Q9NTK5_K248” value was 1.0. Besides, the “isoTOP-ABPP ratio, lysine Q96ST3_K155” value in assay [2] (50 uM_231_sol_in vitro, possible other lysine Q96ST3_K152) is on record as 20.0.
For `COC(=O)NC(=NC(=O)OCC1c2ccccc2-c2ccccc21)n1cccn1` [fragment 49, N-Methoxycarbonyl-N′-9-fluorenylmethoxycarbonyl-pyrazole-1-carboxamidine], at OLA1 Obg-like ATPase 1 (100 uM_231_sol_in vitro), the “isoTOP-ABPP ratio, lysine Q9NTK5_K248” value turned out to be 7.0. For the same compound, the “isoTOP-ABPP ratio, lysine Q92600_K230” value in assay [1] (100 uM_231_sol_in vitro) was determined as 1.1.
